Where two headings read alike, the source gives them in different places.

The test system of assay [1] is Apteronotus leptorhynchus. The experiment in a line: Neuro-behavioral assay: effect on EOD frequency. The class given is in vivo. The note with it: 1 μM to 60 μM, exposure times of up to 48 hours; negative control.
Assay [2] deals with Apteronotus leptorhynchus. The experiment in a line: Neuro-behavioral assay: chirps (EOD modulations). The class given is in vivo. The note with it: 1 μM to 60 μM, exposure times of up to 48 hours; negative control.
The subject of assay [3] is Apteronotus leptorhynchus. The experiment in a line: Neuro-behavioral assay: locomotor activity and induction of anesthesia. The note with it: 1 μM to 60 μM, exposure times of up to 48 hours; negative control. The class given is in vivo.
The subject of a further assay is Mauthner cell. The conditions noted are these: cited from earlier work.

As for `NC12CC3CC(CC(C3)C1)C2` [Amantadine], the “Effect on EOD frequency” value in assay [1] is recorded as “no effects”. In addition, the “Effect on EOD modulations” value in assay [2] is “no effects”. The “Effect on locomotor activity” value in assay [3] is listed as “no effects”.
`CC=Cc1ccc(O)c(OC)c1` [isoeugenol]: the “Effect on generation and propagation of action potentials” value is on record as “No effect” in the assay with Mauthner cell (10 mg/L and 20 mg/L, exposure for more than 1 hour); “slight decrease in the slope of action potentials” in the assay with Mauthner cell (40 mg/L, after 10-30 min); “additional aspects of the action potential were affected” in the assay on Mauthner cell (60 mg/L, exposure for at least 10-30 min).
